How the values were obtained:
[1] = tested on: Tyrosine-protein kinase ABL1 (Homo sapiens), P00519 [E255K]; details: Compound concentration 1000.0 nM
[2] = tested on: Tyrosine-protein kinase ABL1 (Homo sapiens), P00519 [F317I]; details: Compound concentration 1000.0 nM
[3] = tested on: Tyrosine-protein kinase ABL1 (Homo sapiens), P00519 [F317L]; details: Compound concentration 1000.0 nM
[4] = tested on: Tyrosine-protein kinase ABL1 (Homo sapiens), P00519 [Q252H]; details: Compound concentration 1000.0 nM
[5] = tested on: Tyrosine-protein kinase ABL1 (Homo sapiens), P00519 [Q252H]; details: Compound concentration 1000.0 nM; remark: listed apart in the source
[6] = tested on: Tyrosine-protein kinase ABL1 (Homo sapiens), P00519 [T315I]; details: Compound concentration 1000.0 nM
[7] = molecular target: Tyrosine-protein kinase ABL1 (Homo sapiens) (UniProt P00519); details: Compound concentration 1000.0 nM
[8] = molecular target: Serine/threonine-protein kinase B-raf (Homo sapiens) (UniProt P15056); details: Compound concentration 1000.0 nM
Chain of Serine/threonine-protein kinase B-raf (Homo sapiens) (P15056 whole entry): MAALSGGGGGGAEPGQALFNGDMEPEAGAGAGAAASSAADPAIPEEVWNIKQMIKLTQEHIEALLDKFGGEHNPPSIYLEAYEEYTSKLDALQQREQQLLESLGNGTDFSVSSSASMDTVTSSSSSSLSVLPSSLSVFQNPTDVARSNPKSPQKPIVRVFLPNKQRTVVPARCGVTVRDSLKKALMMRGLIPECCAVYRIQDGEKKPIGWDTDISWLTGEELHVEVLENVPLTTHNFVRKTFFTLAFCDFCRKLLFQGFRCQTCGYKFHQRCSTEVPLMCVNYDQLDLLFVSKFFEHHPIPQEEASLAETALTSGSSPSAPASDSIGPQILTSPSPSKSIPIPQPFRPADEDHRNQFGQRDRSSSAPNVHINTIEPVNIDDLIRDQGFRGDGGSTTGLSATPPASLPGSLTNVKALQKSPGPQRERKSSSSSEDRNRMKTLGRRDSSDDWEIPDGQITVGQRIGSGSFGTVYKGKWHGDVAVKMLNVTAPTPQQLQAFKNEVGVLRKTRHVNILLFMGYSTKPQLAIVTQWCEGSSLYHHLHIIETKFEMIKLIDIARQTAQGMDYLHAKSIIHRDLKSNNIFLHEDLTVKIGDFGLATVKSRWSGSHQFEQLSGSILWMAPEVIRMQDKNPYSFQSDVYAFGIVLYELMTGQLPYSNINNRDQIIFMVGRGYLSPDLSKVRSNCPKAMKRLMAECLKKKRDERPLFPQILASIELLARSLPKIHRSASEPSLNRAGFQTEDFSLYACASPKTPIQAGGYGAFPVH

[9] = tested on: Serine/threonine-protein kinase B-raf (Homo sapiens), P15056 [V600E]; details: Compound concentration 1000.0 nM
Chain of Serine/threonine-protein kinase B-raf (Homo sapiens), P15056 [V600E] (P15056 whole entry V600E): as the sequence (P15056 whole entry) above, with V600E counted along it

[10] = molecular target: Dual specificity mitogen-activated protein kinase kinase 7 (Homo sapiens) (UniProt O14733); details: Compound concentration 1000.0 nM
Chain of Dual specificity mitogen-activated protein kinase kinase 7 (Homo sapiens) (O14733 whole entry): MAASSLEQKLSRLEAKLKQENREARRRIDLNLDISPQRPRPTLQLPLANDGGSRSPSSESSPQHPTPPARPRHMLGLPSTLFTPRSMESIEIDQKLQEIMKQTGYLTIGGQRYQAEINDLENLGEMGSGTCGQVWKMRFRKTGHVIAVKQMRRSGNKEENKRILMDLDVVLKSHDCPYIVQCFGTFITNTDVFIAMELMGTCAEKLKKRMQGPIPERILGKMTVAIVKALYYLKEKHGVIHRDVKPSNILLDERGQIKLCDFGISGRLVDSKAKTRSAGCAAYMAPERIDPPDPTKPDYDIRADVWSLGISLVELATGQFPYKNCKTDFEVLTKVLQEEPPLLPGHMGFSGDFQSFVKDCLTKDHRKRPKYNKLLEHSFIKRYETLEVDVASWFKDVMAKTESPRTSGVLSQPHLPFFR

[11] = molecular target: 5-hydroxytryptamine receptor 6 (Homo sapiens) (UniProt P50406); details: Compound concentration 10.0 uM
D(2) dopamine receptor [12] = molecular target: T1, D(2) dopamine receptor (Homo sapiens, UniProt P14416); details: Compound concentration 10.0 uM
T1 sequence (P14416 whole entry): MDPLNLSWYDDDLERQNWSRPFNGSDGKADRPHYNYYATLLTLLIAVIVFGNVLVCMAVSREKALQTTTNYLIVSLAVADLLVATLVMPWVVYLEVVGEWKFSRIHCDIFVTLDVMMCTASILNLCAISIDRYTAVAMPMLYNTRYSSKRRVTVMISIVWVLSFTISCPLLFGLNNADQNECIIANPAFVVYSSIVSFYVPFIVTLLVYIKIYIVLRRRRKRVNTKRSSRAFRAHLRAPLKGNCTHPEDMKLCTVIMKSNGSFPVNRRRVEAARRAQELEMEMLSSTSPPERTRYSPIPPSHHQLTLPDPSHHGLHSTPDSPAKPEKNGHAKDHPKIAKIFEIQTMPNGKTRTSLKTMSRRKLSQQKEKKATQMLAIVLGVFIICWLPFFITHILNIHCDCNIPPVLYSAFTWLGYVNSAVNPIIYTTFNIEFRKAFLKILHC

D(2) dopamine receptor [13] = molecular target: T1, D(2) dopamine receptor; experiment: GPCRScan assay: inhibition of D2; set-up: radioligand conc. used [nm] 0.4 – 1.0, parental cells stable fibroblast
[14] = GPCRScan assay: inhibition of GABA/PBR; set-up: species or system Rattus norvegicus; radioligand conc. used [nm] 0.3 – 2.0, parental cells brain tissue
[15] = molecular target: Alpha-1D adrenergic receptor (Homo sapiens, UniProt P25100); experiment: GPCRScan assay: inhibition of Alpha1D; set-up: radioligand conc. used [nm] 0.3 – 1.0, parental cells stable
[16] = molecular target: T2, Sodium-dependent dopamine transporter (Homo sapiens, UniProt Q01959); experiment: […] binding assay (SLC6A3)
T2 sequence (Q01959 whole entry): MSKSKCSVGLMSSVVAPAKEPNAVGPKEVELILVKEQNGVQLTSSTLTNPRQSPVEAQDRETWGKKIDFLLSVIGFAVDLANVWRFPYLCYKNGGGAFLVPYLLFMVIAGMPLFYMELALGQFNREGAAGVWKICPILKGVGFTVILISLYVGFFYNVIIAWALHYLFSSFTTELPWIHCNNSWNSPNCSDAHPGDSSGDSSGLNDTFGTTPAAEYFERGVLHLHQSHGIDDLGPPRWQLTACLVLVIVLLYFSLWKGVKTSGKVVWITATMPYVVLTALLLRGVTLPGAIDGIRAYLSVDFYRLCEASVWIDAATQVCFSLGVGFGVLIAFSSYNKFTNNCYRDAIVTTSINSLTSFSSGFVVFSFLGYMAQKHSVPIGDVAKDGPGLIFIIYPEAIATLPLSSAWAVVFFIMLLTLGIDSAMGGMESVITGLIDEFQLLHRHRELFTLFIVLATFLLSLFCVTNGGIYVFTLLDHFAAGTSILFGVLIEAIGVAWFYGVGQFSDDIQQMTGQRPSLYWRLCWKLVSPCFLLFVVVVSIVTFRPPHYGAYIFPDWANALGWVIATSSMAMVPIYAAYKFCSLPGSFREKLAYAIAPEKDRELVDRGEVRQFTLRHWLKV

[17] = molecular target: T2, Sodium-dependent dopamine transporter; experiment: Functional Assay: Platelet-rich plasma SLC6A3/cAMP; type: cell-free
[18] = molecular target: Inhibitor of nuclear factor kappa-B kinase subunit alpha (Homo sapiens) (UniProt O15111); details: Compound concentration 1000.0 nM
Chain of Inhibitor of nuclear factor kappa-B kinase subunit alpha (Homo sapiens) (O15111 whole entry): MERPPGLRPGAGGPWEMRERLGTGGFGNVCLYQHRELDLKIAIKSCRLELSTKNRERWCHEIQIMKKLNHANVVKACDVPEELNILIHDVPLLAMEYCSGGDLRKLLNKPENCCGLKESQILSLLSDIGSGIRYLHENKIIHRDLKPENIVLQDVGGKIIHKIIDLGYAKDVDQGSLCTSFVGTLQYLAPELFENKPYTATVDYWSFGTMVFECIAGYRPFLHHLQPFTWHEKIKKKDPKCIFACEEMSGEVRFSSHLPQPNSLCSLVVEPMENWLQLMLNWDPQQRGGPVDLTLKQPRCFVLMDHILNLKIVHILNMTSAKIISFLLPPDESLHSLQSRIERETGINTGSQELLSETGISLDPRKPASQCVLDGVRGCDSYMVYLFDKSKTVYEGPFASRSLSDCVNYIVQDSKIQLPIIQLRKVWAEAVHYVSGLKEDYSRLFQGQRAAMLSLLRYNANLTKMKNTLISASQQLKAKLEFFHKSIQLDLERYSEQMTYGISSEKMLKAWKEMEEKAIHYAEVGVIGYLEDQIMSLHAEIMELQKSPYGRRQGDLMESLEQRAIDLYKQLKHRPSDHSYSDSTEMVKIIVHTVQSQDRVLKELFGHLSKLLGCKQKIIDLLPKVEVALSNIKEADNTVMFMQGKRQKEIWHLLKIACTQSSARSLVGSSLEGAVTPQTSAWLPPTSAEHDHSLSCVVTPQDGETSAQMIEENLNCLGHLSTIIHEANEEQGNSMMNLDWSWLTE

[19] = molecular target: Inhibitor of nuclear factor kappa-B kinase subunit beta (Homo sapiens) (UniProt O14920); details: Compound concentration 1000.0 nM
[20] = molecular target: MAP kinase-activated protein kinase 2 (Homo sapiens) (UniProt P49137); details: Compound concentration 1000.0 nM
Chain of MAP kinase-activated protein kinase 2 (Homo sapiens) (P49137 whole entry, looked up): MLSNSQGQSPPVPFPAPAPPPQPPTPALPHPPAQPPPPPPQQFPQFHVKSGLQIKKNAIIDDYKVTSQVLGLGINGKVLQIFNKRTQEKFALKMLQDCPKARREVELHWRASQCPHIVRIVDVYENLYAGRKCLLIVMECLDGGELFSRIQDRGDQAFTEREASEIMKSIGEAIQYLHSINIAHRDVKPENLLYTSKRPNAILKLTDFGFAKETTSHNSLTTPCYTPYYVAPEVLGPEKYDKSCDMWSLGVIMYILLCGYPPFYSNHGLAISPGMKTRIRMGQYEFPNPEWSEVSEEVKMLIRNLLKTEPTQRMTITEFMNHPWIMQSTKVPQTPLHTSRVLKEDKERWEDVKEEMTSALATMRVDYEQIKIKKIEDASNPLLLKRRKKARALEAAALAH

[21] = molecular target: cAMP-dependent protein kinase catalytic subunit alpha (Homo sapiens) (UniProt P17612); details: Compound concentration 1000.0 nM
[22] = molecular target: 5-hydroxytryptamine receptor 2B (Homo sapiens) (UniProt P41595); details: Compound concentration 10.0 uM
Chain of 5-hydroxytryptamine receptor 2B (Homo sapiens) (P41595 whole entry): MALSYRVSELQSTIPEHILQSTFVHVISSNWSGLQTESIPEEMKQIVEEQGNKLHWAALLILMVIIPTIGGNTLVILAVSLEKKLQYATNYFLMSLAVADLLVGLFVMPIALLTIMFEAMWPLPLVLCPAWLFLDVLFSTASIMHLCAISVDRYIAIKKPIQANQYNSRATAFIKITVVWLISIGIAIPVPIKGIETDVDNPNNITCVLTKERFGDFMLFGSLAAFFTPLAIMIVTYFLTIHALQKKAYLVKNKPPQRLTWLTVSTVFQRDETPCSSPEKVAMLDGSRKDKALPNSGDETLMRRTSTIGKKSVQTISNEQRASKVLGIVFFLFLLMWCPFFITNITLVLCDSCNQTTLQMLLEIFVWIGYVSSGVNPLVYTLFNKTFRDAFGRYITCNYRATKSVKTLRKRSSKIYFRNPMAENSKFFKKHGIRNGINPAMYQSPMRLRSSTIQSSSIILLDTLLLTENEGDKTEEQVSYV

[23] = molecular target: T2, Sodium-dependent dopamine transporter; details: Compound concentration 10.0 uM
[24] = molecular target: Kappa-type opioid receptor (Homo sapiens) (UniProt P41145); details: Compound concentration 10.0 uM
Chain of Kappa-type opioid receptor (Homo sapiens) (P41145 whole entry): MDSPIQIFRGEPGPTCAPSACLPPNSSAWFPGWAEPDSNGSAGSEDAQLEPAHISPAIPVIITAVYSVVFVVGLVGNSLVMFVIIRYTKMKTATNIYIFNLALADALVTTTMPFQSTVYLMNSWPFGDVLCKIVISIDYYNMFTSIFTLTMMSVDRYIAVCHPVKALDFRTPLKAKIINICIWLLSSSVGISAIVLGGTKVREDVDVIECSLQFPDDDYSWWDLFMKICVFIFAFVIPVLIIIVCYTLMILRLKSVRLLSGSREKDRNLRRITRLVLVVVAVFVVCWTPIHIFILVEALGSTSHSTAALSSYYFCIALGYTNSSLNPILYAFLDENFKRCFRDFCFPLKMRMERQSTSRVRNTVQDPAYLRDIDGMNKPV

[25] = molecular target: Histamine H2 receptor (Homo sapiens) (UniProt P25021); details: Compound concentration 10.0 uM
[26] = molecular target: Alpha-1A adrenergic receptor (Homo sapiens) (UniProt P35348); details: Compound concentration 10.0 uM
[27] = molecular target: Alpha-2C adrenergic receptor (Homo sapiens) (UniProt P18825); details: Compound concentration 10.0 uM
Chain of Alpha-2C adrenergic receptor (Homo sapiens) (P18825 whole entry): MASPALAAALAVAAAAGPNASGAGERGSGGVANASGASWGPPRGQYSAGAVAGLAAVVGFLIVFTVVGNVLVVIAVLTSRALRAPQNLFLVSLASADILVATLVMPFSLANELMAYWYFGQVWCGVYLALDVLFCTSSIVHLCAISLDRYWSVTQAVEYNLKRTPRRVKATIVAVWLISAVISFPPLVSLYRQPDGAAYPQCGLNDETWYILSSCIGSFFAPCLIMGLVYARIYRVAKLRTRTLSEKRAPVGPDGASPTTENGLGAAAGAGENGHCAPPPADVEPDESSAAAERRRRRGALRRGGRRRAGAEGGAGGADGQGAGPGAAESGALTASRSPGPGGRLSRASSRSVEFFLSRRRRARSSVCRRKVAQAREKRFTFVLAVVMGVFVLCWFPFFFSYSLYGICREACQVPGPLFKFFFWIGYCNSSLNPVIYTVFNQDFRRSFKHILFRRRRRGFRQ

In the case of `CN([C@@H]1CCc2c(CC(=O)O)c3cc(S(C)(=O)=O)ccc3n2C1)S(=O)(=O)c1ccc(F)cc1`, the residual activity [1] is reported as 100%, the residual activity [2] is reported as 76% and the residual activity [3] is reported as 90%. It also gave a residual activity [4] of 98%, a residual activity [5] of 79% and a residual activity [6] of 88%. It also gave a residual activity [7] of 74%, a residual activity [8] of 98% and a residual activity [9] of 90%. It also gave a residual activity [10] of 100%, an inhibition [11] of -5.39% and an inhibition (D(2) dopamine receptor [12]) of -3.84%.
`CN([C@@H]1CCc2c(CC(=O)O)c3ccccc3n2C1)S(=O)(=O)c1ccc(F)cc1` [MK-7246] gave a Ki (D(2) dopamine receptor [13]) of 3.75 µM, a Ki [14] of 1.11 µM and a pKi [14] of 5.95. The Ki [15] was 10 µM, the Ki [16] was 0.373 µM (not active) and the IC50 [17] was 8.69 µM (not active). The residual activity [18] was 100%, the residual activity [19] was 98% and the residual activity [20] was 100%. The residual activity [21] was 100%, the inhibition [22] was -4.07% and the inhibition [23] was 77.1%. It also gave an inhibition [24] of 4.56%, an inhibition [25] of -1.62% and an inhibition [26] of -4.89%. It also gave an inhibition [27] of -3.1%.

From ChEMBL document CHEMBL4507290 (2021)
